Measurements from patent US8952024B2, “Herbicidal pyrimidone derivatives” (E I du Pont de Nemours and Company, priority 2009, dated 2015).

Key:
Assay type in all cases: in vivo
[1] = tested on: goosegrass (Eleusine indica); experiment: Test B pre-/postemergence plant response; conditions: Preemergence, 62 g ai/ha; scale 0 to 100 (0 no effect, 100 complete control)
[2] = tested on: pigweed (Amaranthus retroflexus); experiment: Test C plant response; conditions: Postemergence, scale 0 to 100
Text: (§1) Seeds of plant species selected from bluegrass (annual bluegrass, Poa annua), blackgrass (Alopecurus myosuroides), canarygrass (Phalaris minor), chickweed (common chickweed, Stellaria media), galium (catchweed bedstraw, Galium aparine), bromegrass (downy bromegrass, Bromus tectorum), field poppy (Papaver rhoeas), field violet (Viola arvensis), green foxtail (Setaria viridis), deadnettle (henbit deadnettle, Lamium amplexicaule), Italian ryegrass (Lolium multiflorum), kochia (Kochia scoparia), lambsquarters (Chenopodium album), oilseed rape (Brassica napus), pigweed (Amaranthus retroflexus), Russian thistle (Salsola iberica), spring barley (Hordeum vulgare), spring wheat (Triticum aestivum), buckwheat (wild buckwheat, Polygonum convolvulus), wild mustard (Sinapis arvensis), wild oat (Avena fatua), wild radish (Raphanus raphanistrum), windgrass (Apera spica-venti), winter barley (Hordeum vulgare), and winter wheat (Triticum aestivum) were planted and treated postemergence with test chemicals formulated in a non-phytotoxic solvent mixture which included a surfactant. Plants ranged in height from 2 to 18 cm (1- to 4-leaf stage).
(§2) Treated plants and controls were maintained in a controlled growth environment for 14 days after which time all test plants were visually evaluated and compared to controls. Plant response ratings, summarized in Table C, are based on a scale of 0 to 100 where 0 is no effect and 100 is complete control. A dash (-) response means no test result.

[3] = tested on: field violet (Viola arvensis); experiment: Test C plant response; conditions: Postemergence, scale 0 to 100
Text: as §1, §2

[4] = tested on: wild radish (Raphanus raphanistrum); experiment: Test C plant response; conditions: Postemergence, scale 0 to 100
Text: as §1, §2

[5] = tested on: Russian thistle (Salsola kali); experiment: Test B pre-/postemergence plant response; conditions: Preemergence; for Russian Thistle plant response rating: 250 g ai/ha, 0 to 100 scale
Summary of the method: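 Seeds sown in loam–sand blend were treated preemergence, and plants at 2–18 cm (1- to 4-leaf stage) in peat-based medium were treated postemergence; compounds were formulated in non-phytotoxic solvent with surfactant. After 13–15 days in greenhouse, response was visually rated against controls, 0 (no effect) to 100 (complete control).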

[6] = tested on: naked crabgrass (Digitaria nuda); experiment: Test D pre-/postemergence plant response; conditions: Preemergence, scale 0 to 100
Summary of the method: (§3)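 Seeds were sown in a loam–sand blend and sprayed preemergence with compound in a non-phytotoxic solvent mixture containing surfactant; plants at 2–18 cm (1- to 4-leaf stage) received the same formulation postemergence. After 14 to 21 days in a greenhouse, injury was rated visually against untreated controls (0 = no effect, 100 = complete control).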

[7] = tested on: Italian ryegrass (Lolium multiflorum); experiment: Test D pre-/postemergence plant response
Summary of the method: as §3

[8] = tested on: purslane (common purslane, Portulaca oleracea); experiment: Test D pre-/postemergence plant response
Summary of the method: as §3

[9] = 62 g ai/ha, scale 0 to 100 (0 no effect, 100 complete control)
[10] = 31 g ai/ha, scale 0 to 100 (0 no effect, 100 complete control)
[11] = 125 g ai/ha, scale 0 to 100, 0 no effect, 100 complete control
[12] = Postemergence, 31 g ai/ha, scale 0 to 100
[13] = Postemergence, 62 g ai/ha, scale 0 to 100 (0 no effect, 100 complete control)
[14] = Postemergence, 125 g ai/ha, scale 0 to 100 (0 no effect, 100 complete control)
[15] = Postemergence, 250 g ai/ha, scale 0 to 100 (0 no effect, 100 complete control)
[16] = Preemergence, 125 g ai/ha, scale 0 to 100
[17] = Preemergence, 250 g ai/ha, scale 0 to 100

3-cyclohexyl-5-[(2-hydroxy-6-oxo-1-cyclohexen-1-yl)carbonyl]-2-phenyl-4(3H)-pyrimidinone [Compound 128]
Plant response rating, Goosegrass [1]: 95
Plant response rating: Pigweed ([2]; 31 g ai/ha): 95
Plant response rating: Pigweed ([2]; 16 g ai/ha): 75
Plant response rating: Pigweed ([2]; 62 g ai/ha): 95
Plant response rating: Pigweed ([2]; 125 g ai/ha): 98
Plant response rating: Field Violet ([3]; 31 g ai/ha): 0
Plant response rating: Field Violet ([3]; 16 g ai/ha): 0
Plant response rating: Field Violet ([3]; 62 g ai/ha): 35
Plant response rating: Field Violet ([3]; 125 g ai/ha): 35
Plant response rating: Radish, Wild ([4]; 31 g ai/ha): 95
Plant response rating: Radish, Wild ([4]; 16 g ai/ha): 95
Plant response rating: Radish, Wild ([4]; 62 g ai/ha): 95
Plant response rating: Radish, Wild ([4]; 125 g ai/ha): 95

COc1ccc(-n2c(-c3ccccc3)ncc(C(=O)C3=C(O)CCCC3=O)c2=O)cc1 [Compound 4, 5-[(2-hydroxy-6-oxo-cyclohexen-1-yl)carbonyl]-3-(4-methoxyphenyl)-2-phenyl-4(3H)-pyrimidinone]
Plant response rating: Pigweed ([2]; 31 g ai/ha): 95
Plant response rating: Pigweed ([2]; 125 g ai/ha): 100
Plant response rating: Field Violet ([3]; 31 g ai/ha): 40
Plant response rating: Field Violet ([3]; 125 g ai/ha): 60
Plant response rating: Radish, Wild ([4]; 31 g ai/ha): 80
Plant response rating: Radish, Wild ([4]; 125 g ai/ha): 95

Cc1ccc(-n2c(-c3ccccc3)ncc(C(=O)C3=C(O)CCCC3=O)c2=O)cc1 [Compound 8]
Plant response rating: Pigweed ([2]; 31 g ai/ha): 95
Plant response rating: Pigweed ([2]; 16 g ai/ha): 95
Plant response rating: Pigweed ([2]; 62 g ai/ha): 98
Plant response rating: Pigweed ([2]; 125 g ai/ha): 98
Plant response rating: Field Violet ([3]; 31 g ai/ha): 65
Plant response rating: Field Violet ([3]; 16 g ai/ha): 10
Plant response rating: Field Violet ([3]; 62 g ai/ha): 65
Plant response rating: Field Violet ([3]; 125 g ai/ha): 65
Plant response rating: Radish, Wild ([4]; 31 g ai/ha): 95
Plant response rating: Radish, Wild ([4]; 16 g ai/ha): 85
Plant response rating: Radish, Wild ([4]; 62 g ai/ha): 98
Plant response rating: Radish, Wild ([4]; 125 g ai/ha): 100

Cc1ccccc1-n1c(-c2ccccc2)ncc(C(=O)C2=C(O)CCCC2=O)c1=O [Compound 12]
Plant response rating, Goosegrass [1]: 95
Plant response rating: Pigweed ([2]; 31 g ai/ha): 65
Plant response rating: Pigweed ([2]; 16 g ai/ha): 65
Plant response rating: Pigweed ([2]; 62 g ai/ha): 75
Plant response rating: Pigweed ([2]; 125 g ai/ha): 75
Plant response rating: Field Violet ([3]; 31 g ai/ha): 35
Plant response rating: Field Violet ([3]; 16 g ai/ha): 35
Plant response rating: Field Violet ([3]; 62 g ai/ha): 40
Plant response rating: Field Violet ([3]; 125 g ai/ha): 40
Plant response rating: Radish, Wild ([4]; 31 g ai/ha): 80
Plant response rating: Radish, Wild ([4]; 16 g ai/ha): 60
Plant response rating: Radish, Wild ([4]; 62 g ai/ha): 90
Plant response rating: Radish, Wild ([4]; 125 g ai/ha): 90

O=C1CCCC(O)=C1C(=O)c1cnc(-c2ccccc2)n(-c2ccccc2F)c1=O [Compound 26]
Plant response rating, Goosegrass [1]: 80

Cc1cc(C)cc(-n2c(-c3ccccc3)ncc(C(=O)C3=C(O)CCCC3=O)c2=O)c1 [Compound 33]
Plant response rating, Goosegrass [1]: 85
Plant response rating: Pigweed ([2]; 31 g ai/ha): 95
Plant response rating: Pigweed ([2]; 16 g ai/ha): 75
Plant response rating: Pigweed ([2]; 62 g ai/ha): 95
Plant response rating: Pigweed ([2]; 125 g ai/ha): 98
Plant response rating: Field Violet ([3]; 31 g ai/ha): 90
Plant response rating: Field Violet ([3]; 16 g ai/ha): 65
Plant response rating: Field Violet ([3]; 62 g ai/ha): 95
Plant response rating: Field Violet ([3]; 125 g ai/ha): 95
Plant response rating: Radish, Wild ([4]; 31 g ai/ha): 95
Plant response rating: Radish, Wild ([4]; 16 g ai/ha): 90
Plant response rating: Radish, Wild ([4]; 62 g ai/ha): 95
Plant response rating: Radish, Wild ([4]; 125 g ai/ha): 98

Cc1ccccc1-n1c(-c2cccc(Cl)c2)ncc(C(=O)C2=C(O)CCCC2=O)c1=O [Compound 36]
Plant response rating, Goosegrass [1]: 90

O=C1CCCC(O)=C1C(=O)c1cnc(-c2ccccc2)n(-c2cccc(Br)c2)c1=O [Compound 38]
Plant response rating, Goosegrass [1]: 100

Cc1c(Cl)cccc1-n1c(-c2ccccc2)ncc(C(=O)C2=C(O)CCCC2=O)c1=O [Compound 40]
Plant response rating, Goosegrass [1]: 98

CCCCc1ncc(C(=O)C2=C(O)CCCC2=O)c(=O)n1-c1ccccc1 [Compound 42]
Plant response rating, Goosegrass [1]: 95

Cc1ccc(F)cc1-n1c(-c2ccccc2)ncc(C(=O)C2=C(O)CCCC2=O)c1=O [Compound 44]
Plant response rating, Goosegrass [1]: 98

Cc1cccc(Cl)c1-n1c(-c2ccccc2)ncc(C(=O)C2=C(O)CCCC2=O)c1=O [Compound 46]
Plant response rating, Goosegrass [1]: 95

O=C1CCCC(O)=C1C(=O)c1cnc(-c2cccc(Cl)c2)n(-c2ccc(Cl)cc2)c1=O [Compound 64]
Plant response rating, Russian Thistle [5, 9]: 0

CCCCc1ncc(C(=O)C2=C(O)CCCC2=O)c(=O)n1-c1ccc(C)cc1 [Compound 67]
Plant response rating, Russian Thistle [5, 10]: 85

CCCc1ncc(C(=O)C2=C(O)CCCC2=O)c(=O)n1-c1ccccc1C [Compound 73]
Plant response rating, Russian Thistle [5, 10]: 0

CCCc1ncc(C(=O)C2=C(O)CCCC2=O)c(=O)n1CC1CCCO1 (stereo not shown) [Compound 74]
Plant response rating, Russian Thistle [5, 10]: 0
Plant response rating, Russian Thistle [5, 9]: 80
Plant response rating, Russian Thistle [5, 11]: 90
Russian Thistle plant response rating [5]: 98

COCCn1c(-c2cc(F)cc(F)c2)ncc(C(=O)C2=C(O)CCCC2=O)c1=O [Compound 119]
Plant response rating, Russian Thistle [5, 10]: 100
Plant response rating, Russian Thistle [5, 9]: 100
Plant response rating, Russian Thistle [5, 11]: 100
Russian Thistle plant response rating [5]: 100

COCCCn1c(-c2cc(F)cc(F)c2)ncc(C(=O)C2=C(O)CCCC2=O)c1=O [Compound 120]
Plant response rating, Russian Thistle [5, 9]: 80
Plant response rating, Russian Thistle [5, 11]: 80

COCCn1c(-c2cc(F)cc(F)c2)ncc(C(=O)C2=C(O)C3CCC(C3)C2=O)c1=O (stereo not shown) [Compound 243, 2-(3,5-difluorophenyl)-5-[(2-hydroxy-4-oxobicyclo[3.2.1]oct-2-en-3-yl)carbonyl]-3-(2-methoxyethyl)-4(3H)-pyrimidinone]
Plant response rating, Crabgrass, Naked ([6]; 62 g ai/ha): 100
Plant response rating, Crabgrass, Naked ([6]; 125 g ai/ha): 100
Plant response rating, Crabgrass, Naked ([6]; 250 g ai/ha): 100
Plant response rating, Ryegrass, Italian [7, 12]: 0
Plant response rating, Ryegrass, Italian [7, 13]: 20
Plant response rating, Ryegrass, Italian [7, 14]: 30
Plant response rating, Ryegrass, Italian [7, 15]: 65
Plant response rating, Ryegrass, Italian [7, 16]: 98
Plant response rating, Ryegrass, Italian [7, 17]: 100
Plant response rating, Purslane [8, 12]: 35
Plant response rating, Purslane [8, 13]: 50
Plant response rating, Purslane [8, 14]: 50
Plant response rating, Purslane [8, 15]: 50
Plant response rating, Purslane ([8]; Preemergence, 62 g ai/ha, scale 0 to 100): 95
Plant response rating, Purslane [8, 16]: 100
Plant response rating, Purslane [8, 17]: 100
Plant response rating, Russian Thistle [5, 10]: 100
Plant response rating, Russian Thistle [5, 9]: 100
Plant response rating, Russian Thistle [5, 11]: 100
Russian Thistle plant response rating [5]: 100
